Measurements published in PubChem BioAssay (NCI).
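Results reflect a 48-hour exposure of cells in 96-well plates to compound at five concentrations. GI50 = concentration required for 50% inhibition of growth. TGI marks complete inhibition of growth.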

Key:
Experiment in all cases: NCI tumour cell line growth inhibition, 48 h
[1] = system: 786-0 renal
[2] = system: A498 renal
[3] = system: A549 NSCLC
[4] = system: ACHN renal
[5] = system: BT-549 breast
[6] = system: CAKI-1 renal
[7] = system: CCRF-CEM leukemia
[8] = system: COLO 205 colon
[9] = system: DU-145 prostate
[10] = system: EKVX NSCLC
[11] = system: HCT-116 colon
[12] = system: HCT-15 colon
[13] = system: HL-60(TB) leukemia
[14] = system: HOP-62 NSCLC
[15] = system: HOP-92 NSCLC
[16] = system: HS 578T breast
[17] = system: HT29 colon
[18] = system: IGROV1 ovarian
[19] = system: K-562 leukemia
[20] = system: KM12 colon
[21] = system: LOX IMVI melanoma
[22] = system: M14 melanoma
[23] = system: MALME-3M melanoma
[24] = system: MCF7 breast
[25] = system: MDA-MB-231 breast
[26] = system: MDA-MB-435
[27] = system: MOLT-4 leukemia
[28] = system: NCI-H226 lung
[29] = system: NCI-H23 lung
[30] = system: NCI-H460 lung
[31] = system: NCI-H522 lung
[32] = system: NCI/ADR-RES ovarian
[33] = system: OVCAR-3 ovarian
[34] = system: OVCAR-4 ovarian
[35] = system: OVCAR-5 ovarian
[36] = system: OVCAR-8 ovarian
[37] = system: PC-3 prostate
[38] = system: RPMI-8226 leukemia
[39] = system: SF-268 CNS
[40] = system: SF-295 CNS
[41] = system: SF-539 CNS
[42] = system: SK-MEL-2 melanoma
[43] = system: SK-MEL-28 melanoma
[44] = system: SK-MEL-5 melanoma
[45] = system: SN12C renal
[46] = system: SNB-19 CNS
[47] = system: SNB-75 CNS
[48] = system: SR leukemia
[49] = system: SW-620 colon
[50] = system: TK-10 renal
[51] = system: U251 CNS
[52] = system: UACC-257 melanoma
[53] = system: UO-31 renal
[54] = system: HCC-2998 colon
[55] = system: RXF 393 renal
[56] = system: SK-OV-3 ovarian
[57] = system: T-47D breast
[58] = system: UACC-62 melanoma

O=C1C2=Cc3ccccc3CCN2c2ccccc21
TGI [1]: > 31.6 µM | TGI [2]: 25.9 µM | TGI [3]: > 100 µM | TGI [4]: > 31.6 µM | TGI [5]: 33 µM | TGI [6]: 30.4 µM | TGI [7]: 26.1 µM | TGI [8]: > 56 µM | TGI [9]: > 100 µM | TGI [10]: > 94.5 µM | TGI [11]: > 70.4 µM | TGI [12]: > 79.5 µM | TGI [13]: 72.4 µM | TGI [14]: > 100 µM | TGI [15]: > 92.3 µM | TGI [16]: > 100 µM | TGI [17]: 23 µM | TGI [18]: > 100 µM | TGI [19]: 20.5 µM | TGI [20]: > 62 µM | TGI [21]: 38.7 µM | TGI [22]: 26.8 µM | TGI [23]: > 76.7 µM | TGI [24]: > 61 µM | TGI [25]: > 59.4 µM | TGI [26]: > 56.3 µM | TGI [27]: 48 µM | TGI [28]: 22 µM | TGI [29]: > 100 µM | TGI [30]: 60.2 µM | TGI [31]: > 82.7 µM | TGI [32]: > 77.9 µM | TGI [33]: > 100 µM | TGI [34]: > 100 µM | TGI [35]: > 100 µM | TGI [36]: > 100 µM | TGI [37]: > 62.7 µM | TGI [38]: 23.3 µM | TGI [39]: > 74.2 µM | TGI [40]: 98.3 µM | TGI [41]: 27.2 µM | TGI [42]: 67.9 µM | TGI [43]: > 82.3 µM | TGI [44]: 34.1 µM | TGI [45]: > 31.6 µM | TGI [46]: > 100 µM | TGI [47]: > 100 µM | TGI [48]: 29.5 µM | TGI [49]: > 31.6 µM | TGI [50]: > 100 µM | TGI [51]: > 31.6 µM | TGI [52]: > 79.9 µM | TGI [53]: > 100 µM

CN(C)CCOc1ccc(/C(=C(/CCCCCCCCCC[P+](c2ccccc2)(c2ccccc2)c2ccccc2)c2ccccc2)c2ccccc2)cc1
GI50 [2]: 0.224 µM | TGI [2]: 0.774 µM | GI50 [3]: 0.0772 µM | TGI [3]: 1.66 µM | GI50 [4]: 0.382 µM | TGI [4]: 1.47 µM | GI50 [9]: 0.258 µM | TGI [9]: 1.35 µM | GI50 [10]: 0.274 µM | TGI [10]: 1.4 µM | GI50 [13]: 0.0575 µM | TGI [13]: 0.319 µM | GI50 [15]: 0.0297 µM | TGI [15]: 0.208 µM | GI50 [16]: 0.318 µM | TGI [16]: 1.79 µM | GI50 [17]: 0.127 µM | TGI [17]: 1.4 µM | GI50 [19]: 0.0389 µM | TGI [19]: > 100 µM | GI50 [26]: 0.223 µM | TGI [26]: 0.899 µM | GI50 [32]: 1.32 µM | TGI [32]: 3.78 µM | GI50 [37]: 0.0304 µM | TGI [37]: 0.184 µM | GI50 [38]: 0.0273 µM | TGI [38]: 0.172 µM | GI50 [42]: 0.28 µM | TGI [42]: 0.864 µM | GI50 [43]: 0.364 µM | TGI [43]: 1.79 µM | GI50 [49]: 0.28 µM | TGI [49]: 1.32 µM

O=C(CP(=O)(c1ccccc1)c1ccccc1)c1cccc(C(=O)CP(=O)(c2ccccc2)c2ccccc2)c1
TGI [1]: > 100 µM | TGI [3]: > 100 µM | TGI [4]: > 100 µM | TGI [6]: > 100 µM | TGI [7]: > 100 µM | TGI [8]: > 100 µM | TGI [9]: > 100 µM | TGI [10]: > 100 µM | TGI [54]: > 100 µM | TGI [11]: > 100 µM | TGI [12]: > 100 µM | TGI [13]: > 100 µM | TGI [14]: > 100 µM | TGI [16]: 57.9 µM | TGI [17]: > 100 µM | TGI [18]: > 100 µM | TGI [19]: > 100 µM | TGI [20]: > 100 µM | TGI [22]: > 100 µM | TGI [24]: > 100 µM | TGI [25]: > 100 µM | TGI [26]: > 100 µM | TGI [27]: > 100 µM | TGI [28]: > 100 µM | TGI [30]: > 100 µM | TGI [32]: > 100 µM | TGI [34]: > 100 µM | TGI [35]: > 100 µM | TGI [36]: > 100 µM | TGI [37]: > 100 µM | TGI [38]: > 100 µM | TGI [55]: 52.7 µM | TGI [39]: > 100 µM | TGI [40]: 30 µM | TGI [41]: > 100 µM | TGI [42]: > 100 µM | TGI [43]: > 100 µM | TGI [44]: > 100 µM | TGI [56]: 56.1 µM | TGI [45]: > 100 µM | TGI [46]: > 100 µM | TGI [47]: 37.6 µM | TGI [48]: > 100 µM | TGI [49]: > 100 µM | TGI [57]: > 100 µM | TGI [50]: > 100 µM | TGI [52]: > 100 µM | TGI [58]: > 100 µM | TGI [53]: > 100 µM

O=C1c2ccccc2C(=O)C2NC(CCCCCSSCCCCCC3=NC4C(=O)c5ccccc5C(=O)C4N3)=NC12 (stereo not given)
TGI [1]: > 100 µM | TGI [2]: > 100 µM | TGI [4]: > 100 µM | TGI [6]: > 100 µM | TGI [7]: > 100 µM | TGI [9]: > 100 µM | TGI [10]: > 100 µM | TGI [11]: > 100 µM | TGI [12]: > 100 µM | TGI [13]: > 100 µM | TGI [14]: > 100 µM | TGI [15]: 69.2 µM | TGI [16]: > 100 µM | TGI [17]: > 100 µM | TGI [18]: > 100 µM | TGI [19]: > 100 µM | TGI [20]: > 100 µM | TGI [21]: > 100 µM | TGI [22]: > 100 µM | TGI [24]: > 100 µM | TGI [25]: > 100 µM | TGI [26]: > 100 µM | TGI [27]: > 100 µM | TGI [28]: > 100 µM | TGI [29]: > 100 µM | TGI [30]: > 100 µM | TGI [31]: > 100 µM | TGI [32]: > 100 µM | TGI [33]: > 100 µM | TGI [34]: > 100 µM | TGI [35]: > 100 µM | TGI [36]: > 100 µM | TGI [37]: > 100 µM | TGI [38]: > 100 µM | TGI [55]: > 100 µM | TGI [39]: > 100 µM | TGI [40]: > 100 µM | TGI [41]: > 100 µM | TGI [42]: > 100 µM | TGI [43]: > 100 µM | TGI [44]: > 100 µM | TGI [56]: > 100 µM | TGI [48]: > 100 µM | TGI [49]: > 100 µM | TGI [57]: > 100 µM | TGI [50]: > 100 µM | TGI [51]: > 100 µM | TGI [52]: > 100 µM | TGI [53]: > 100 µM
